Measurements from US20070021441A1 (priority 2003, published 2007).
Like-named read-outs stand apart in the source and are kept apart here.

Tested on: Pyricularia oryzae
Assay type: in vivo
Settings: individual active compound, protective, inoculated next day, assessed after 6 days

Row | SMILES | Efficacy in % of the untreated control (16 ppm in the spray liquor) [%] | Efficacy in % of the untreated control (63 ppm in the spray liquor) [%]
1 | CC1CCN(c2c(-c3c(F)cccc3Cl)c(Cl)nc3ncnn23)CC1 [A] | 35 | 61
2 | CC1CCN(c2c(-c3c(F)cc(F)cc3F)c(Cl)nc3ncnn23)CC1 [compound I, 5-chloro-7-(4-methylpiperidin-1-yl)-6-(2,4,6-trifluorophenyl)[1,2,4]triazolo[1,5-a]pyrimidine] | 21 | 48
3 | O=C1C2CC=CCC2C(=O)N1SC(Cl)(Cl)Cl (stereo not shown) [IIa, 2-trichloromethylsulfanyl-3a,4,7,7a-tetrahydroisoindole-1,3-dione] | 0 | 35
4 | C[C@H](Nc1c(-c2c(F)cc(F)cc2F)c(Cl)nc2ncnn12)C(F)(F)F [B] | 48 | 61
5 | O=C1c2ccccc2C(=O)N1SC(Cl)(Cl)Cl [IIb, 2-trichloromethylsulfanylisoindole-1,3-dione] | 0 | 8
